Source: ChEMBL document CHEMBL6103674, “Xiapyrroles A-F: N-Alkylpyrrole Alkaloids from the Marine-Derived Actinomycete Streptomyces xiamenensis 1310KO-148” (J Nat Prod, 2025)
Activity calls are given as the source filed them. The calls are words filed in the database; no cut-off is given here.

Assays:
RAW264.7 [1] = test: Anti-inflammatory activity in LPS-induced mouse RAW264.7 cells assessed as suppression of NO production at 30 uM pretreated for 1 hr followed by LPS addition and measured after 24 hrs by Griess reagent based assay; assay type: functional, cell-based; details: time 25.0 hrs
RAW264.7 [2] = test: Cytotoxicity against LPS-induced mouse RAW264.7 cells assessed as reduction in cell viability at 30 uM measured after 24 hrs by XTT assay; assay type: toxicity, cell-based; details: raw264.7, 24 h
RAW264.7 [3] = test: Anti-inflammatory activity in LPS-induced mouse RAW264.7 cells assessed as suppression of NO production pretreated for 1 hr followed by LPS addition and measured after 24 hrs by Griess reagent based assay; assay type: functional, cell-based
RAW264.7 [4] = test: Anti-inflammatory activity in LPS-induced mouse RAW264.7 cells assessed as suppression of IL-6 level pretreated for 1 hr followed by LPS addition and measured after 24 hrs by ELISA method; assay type: functional, cell-based
RAW264.7 [5] = test: Anti-inflammatory activity against mouse RAW264.7 cells assessed as inhibition of LPS-induced iNOS mRNA level pretreated for 1 hr followed by induced with LPS measured after 6 hrs by quantitative RT-PCR analysis; assay type: functional, cell-based; details: dose 1-30 µM, time 7.0 hrs
RAW264.7 [6] = test: Anti-inflammatory activity against mouse RAW264.7 cells assessed as inhibition of LPS-induced IL-6 mRNA level pretreated for 1 hr followed by induced with LPS measured after 6 hrs by quantitative RT-PCR analysis; assay type: functional, cell-based; details: dose 1-30 µM, time 7.0 hrs
PC-3 = test: Cytotoxicity against human PC-3 cells at 30 uM; assay type: functional, cell-based
NCI-H23 = test: Cytotoxicity against human NCI-H23 cells at 30 uM; assay type: functional, cell-based
HCT-15 = test: Cytotoxicity against human HCT-15 cells at 30 uM; assay type: functional, cell-based
NUGC-3 = test: Cytotoxicity against human NUGC-3 cells at 30 uM; assay type: functional, cell-based
ACHN = test: Cytotoxicity against human ACHN cells at 30 uM; assay type: functional, cell-based
MDA-MB-231 = test: Cytotoxicity against human MDA-MB-231 cells at 30 uM; assay type: functional, cell-based
HL-60 = test: Cytotoxicity against human HL-60 cells at 30 uM; assay type: functional, cell-based
Raji = test: Cytotoxicity against human Raji cells at 30 uM; assay type: functional, cell-based
K562 = test: Cytotoxicity against human K562 cells at 30 uM; assay type: functional, cell-based
RPMI 8402 = test: Cytotoxicity against human RPMI 8402 cells at 30 uM; assay type: functional, cell-based
NALM-6 = test: Cytotoxicity against human NALM-6 cells at 30 uM; assay type: functional, cell-based
U-266 = test: Cytotoxicity against human U-266 cells at 30 uM; assay type: functional, cell-based
WSUDLCL2 = test: Cytotoxicity against human WSUDLCL2 cells at 30 uM; assay type: functional, cell-based
RPMI-1788 = test: Cytotoxicity against human RPMI-1788 cells at 30 uM; assay type: functional, cell-based

**Q.** With `C=C1C=C(C)C(=O)N1CCc1ccc(O)cc1` as the molecule, how does the Activity (RAW264.7 [1]) read?
**A.** The Activity was “Active”.

**Q.** And the Activity (RAW264.7 [2])?
**A.** The Activity was “Non-toxic”.

**Q.** And the IC50 (RAW264.7 [3])?
**A.** The IC50 was 29.5 µM.

**Q.** What about the Activity (RAW264.7 [3]; time 25.0 hrs) of the same molecule?
**A.** Its Activity is “Dose-dependent-effect”.

**Q.** And the IC50 (RAW264.7 [4])?
**A.** Its IC50 is 10.9 µM.

**Q.** And the Activity (RAW264.7 [4]; time 25.0 hrs)?
**A.** Its Activity is “Dose-dependent-effect”.

**Q.** And the inhibition (RAW264.7 [5])?
**A.** The inhibition was “Dose-dependent-effect”.

**Q.** What about the inhibition (RAW264.7 [6]) of the same molecule?
**A.** Its inhibition is “Dose-dependent-effect”.

**Q.** What about the Activity (PC-3) of the same molecule?
**A.** The Activity was “inactive”.

**Q.** What about the Activity (NCI-H23) of the same molecule?
**A.** Its Activity is “inactive”.

**Q.** And the Activity (HCT-15)?
**A.** Its Activity is “inactive”.

**Q.** And the Activity (NUGC-3)?
**A.** The Activity was “inactive”.

**Q.** What about the Activity (ACHN) of the same molecule?
**A.** The Activity was “inactive”.

**Q.** And the Activity (MDA-MB-231)?
**A.** Its Activity is “inactive”.

**Q.** And the Activity (HL-60)?
**A.** The Activity was “inactive”.

**Q.** What about the Activity (Raji) of the same molecule?
**A.** The Activity was “inactive”.

**Q.** And the Activity (K562)?
**A.** Its Activity is “inactive”.

**Q.** And the Activity (RPMI 8402)?
**A.** The Activity was “inactive”.

**Q.** What about the Activity (NALM-6) of the same molecule?
**A.** Its Activity is “inactive”.

**Q.** And the Activity (U-266)?
**A.** Its Activity is “inactive”.

**Q.** And the Activity (WSUDLCL2)?
**A.** The Activity was “inactive”.

**Q.** What about the Activity (RPMI-1788) of the same molecule?
**A.** The Activity was “inactive”.

**Q.** With `CO[C@@]1(C)C=C(C)C(=O)N1CC(=O)c1ccccc1` as the molecule, how does the Activity (RAW264.7 [2]) read?
**A.** The Activity was “Non-toxic”.

**Q.** `CC(=O)N(O)CCCn1c(C)cc(C)c1C(=O)[C@@H](O)CO` was tested. Which Activity (RAW264.7 [2]) did it give?
**A.** Its Activity is “Non-toxic”.

**Q.** How did the Activity (RAW264.7 [2]) turn out when `CC1=C[C@@](C)(O)N(CCc2ccc(O)cc2)C1=O` was run?
**A.** The Activity was “Non-toxic”.

**Q.** With `Cc1cc(C)n(CCc2ccc(O)cc2)c1C=O` as the molecule, how does the Activity (RAW264.7 [2]) read?
**A.** The Activity was “Non-toxic”.

**Q.** With `CO[C@@]1(C)C=C(C)C(=O)N1CCc1ccc(O)cc1` as the molecule, how does the Activity (RAW264.7 [2]) read?
**A.** Its Activity is “Non-toxic”.
